21 compounds from patent publication US8785457B2 (Cellzome Limited, priority 2009, dated 2014) can be followed below.

The target in experiment [1] is T1, DNA-dependent protein kinase (DNA-PK) (Homo sapiens, UniProt P78527).
T1 construct: endogenous in cells; host or cells: Jurkat, clone E6-1 (ATCC TIB-152) cell lysate
Briefly: kinobeads assay, DNA-PK. The class given is binding. The following applies: kinobeads assay. In short, it runs like this: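 Competitive binding in Jurkat cell lysate (5 mg/mL protein) against beads carrying an immobilized phenylmorpholin-chromen ligand, in DP buffer pH 7.4 with NP40, DTT and NaF. Bead-bound kinases were eluted and quantified by antibody dot blot with infrared detection, and IC50 was taken from dose-response curves of a 1:3 dilution series.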

Experiment [2] concerns Akt serine-473 phosphorylation. Briefly: In vitro Phospho-Akt cellular assay (pAkt S473) in HEK293T/17 cells. The conditions noted are these: Homo sapiens, 2 hours. The class given is cell-based. An excerpt:
Activation of mTOR signaling results in phosphorylation of several downstream targets. In cells, mTOR exists in two different protein complexes. The mTOR Complex-1 (mTORC1) phosphorylates and activates S6 Kinase 1 (S6K1) and S6 Kinase 2 (S6K2) (also known as p70S6K) which then phosphorylate S6 Ribosomal Protein (S6RP) (also known as RPS6)3. S6RP is phosphorylated on serine 235, serine 236, serine 240 and serine 244 by both pS6K1 and pS6K2. The mTOR Complex-2 (mTORC2) phosphorylates AKT on serine 473 which activates the AKT signaling pathway.
The assay measures a test compound's inhibition of S6RP serine-240/244 phosphorylation and inhibition of Akt serine-473 phosphorylation in human embryonic kidney derived HEK293T/17 cells (ATCC CRL-11268).
The HEK293T/17 cell line is maintained in DMEM media (Invitrogen catalogue number 41965-039) supplemented with 10% FCS at 37° C. in a 5% CO2 humidified incubator.
Cells are seeded in 96-well plates at 40,000 cells/well (pS6RP S240/244 assay) or 80,000 cells/well (pAkt S473 assay) in 90 μl growth media (DMEM, 2% FCS). Plates are incubated for 1 hour in a humidified incubator to allow the cells to adhere. Cells are treated with 8 concentrations of test compounds or DMSO alone for controls (final DMSO concentration 0.1%) and incubated at 37° C. for 2 hours. Then 20 μl of 5× concentrated lysis buffer (750 mM NaCl, 100 mM Tris pH7.4, 5 mM ADTA, 5 mM EGTA, 5% Triton X-100) is added, plates are sealed and incubated for 15 minutes at 4° C. with gentle shaking. After cell lysis, 25 μl cell lysate is transferred to a MesoScale plate coated with an antibody to pS6RP Ser240/244 (MesoScale Discovery K150DGD-3) or an antibody to pAkt Ser 473 (MesoScale Discovery K151DGD-3). Plates have been blocked before by incubation with 150 μl MesoScale Discovery Blocking Solution-A for 1 hour at room temperature followed by washing with 150 μl 1× Tris wash buffer per well. After the transfer of the cell lysate to the MSD plate, the pS6RP (or pAkt) protein is captured on the coated antibody by incubation at room temperature for 1 hour with gentle shaking. After the capture step the plate is washed three times with 150 μl of 1× Tris wash buffer per well. Then 25 μl detection antibody conjugated with a Sulfo-Tag is added and incubated for 1 hour at room temperature with gentle shaking. Subsequently the antibody solution is removed and the plate is washed 3 times with 150 μl×Tris wash buffer per well and 150 μl Read buffer is added. The plates are analysed on a MSD 2400 Plate Reader (MesoScale Discovery). Data analysis is performed using nonlinear regression for a sigmoidal dose-response with a variable slope.

[3] abbreviates: Table 6, read-out: Inhibition values (IC50) DNAPK.
[4] abbreviates: Table 4, read-out: Inhibition values (IC50) DNA-PK.

Read-outs that look alike come from different tables or passages of the source. A value given as a limit tells only on which side of the number the result lay.

T1 sequence (P78527 whole entry): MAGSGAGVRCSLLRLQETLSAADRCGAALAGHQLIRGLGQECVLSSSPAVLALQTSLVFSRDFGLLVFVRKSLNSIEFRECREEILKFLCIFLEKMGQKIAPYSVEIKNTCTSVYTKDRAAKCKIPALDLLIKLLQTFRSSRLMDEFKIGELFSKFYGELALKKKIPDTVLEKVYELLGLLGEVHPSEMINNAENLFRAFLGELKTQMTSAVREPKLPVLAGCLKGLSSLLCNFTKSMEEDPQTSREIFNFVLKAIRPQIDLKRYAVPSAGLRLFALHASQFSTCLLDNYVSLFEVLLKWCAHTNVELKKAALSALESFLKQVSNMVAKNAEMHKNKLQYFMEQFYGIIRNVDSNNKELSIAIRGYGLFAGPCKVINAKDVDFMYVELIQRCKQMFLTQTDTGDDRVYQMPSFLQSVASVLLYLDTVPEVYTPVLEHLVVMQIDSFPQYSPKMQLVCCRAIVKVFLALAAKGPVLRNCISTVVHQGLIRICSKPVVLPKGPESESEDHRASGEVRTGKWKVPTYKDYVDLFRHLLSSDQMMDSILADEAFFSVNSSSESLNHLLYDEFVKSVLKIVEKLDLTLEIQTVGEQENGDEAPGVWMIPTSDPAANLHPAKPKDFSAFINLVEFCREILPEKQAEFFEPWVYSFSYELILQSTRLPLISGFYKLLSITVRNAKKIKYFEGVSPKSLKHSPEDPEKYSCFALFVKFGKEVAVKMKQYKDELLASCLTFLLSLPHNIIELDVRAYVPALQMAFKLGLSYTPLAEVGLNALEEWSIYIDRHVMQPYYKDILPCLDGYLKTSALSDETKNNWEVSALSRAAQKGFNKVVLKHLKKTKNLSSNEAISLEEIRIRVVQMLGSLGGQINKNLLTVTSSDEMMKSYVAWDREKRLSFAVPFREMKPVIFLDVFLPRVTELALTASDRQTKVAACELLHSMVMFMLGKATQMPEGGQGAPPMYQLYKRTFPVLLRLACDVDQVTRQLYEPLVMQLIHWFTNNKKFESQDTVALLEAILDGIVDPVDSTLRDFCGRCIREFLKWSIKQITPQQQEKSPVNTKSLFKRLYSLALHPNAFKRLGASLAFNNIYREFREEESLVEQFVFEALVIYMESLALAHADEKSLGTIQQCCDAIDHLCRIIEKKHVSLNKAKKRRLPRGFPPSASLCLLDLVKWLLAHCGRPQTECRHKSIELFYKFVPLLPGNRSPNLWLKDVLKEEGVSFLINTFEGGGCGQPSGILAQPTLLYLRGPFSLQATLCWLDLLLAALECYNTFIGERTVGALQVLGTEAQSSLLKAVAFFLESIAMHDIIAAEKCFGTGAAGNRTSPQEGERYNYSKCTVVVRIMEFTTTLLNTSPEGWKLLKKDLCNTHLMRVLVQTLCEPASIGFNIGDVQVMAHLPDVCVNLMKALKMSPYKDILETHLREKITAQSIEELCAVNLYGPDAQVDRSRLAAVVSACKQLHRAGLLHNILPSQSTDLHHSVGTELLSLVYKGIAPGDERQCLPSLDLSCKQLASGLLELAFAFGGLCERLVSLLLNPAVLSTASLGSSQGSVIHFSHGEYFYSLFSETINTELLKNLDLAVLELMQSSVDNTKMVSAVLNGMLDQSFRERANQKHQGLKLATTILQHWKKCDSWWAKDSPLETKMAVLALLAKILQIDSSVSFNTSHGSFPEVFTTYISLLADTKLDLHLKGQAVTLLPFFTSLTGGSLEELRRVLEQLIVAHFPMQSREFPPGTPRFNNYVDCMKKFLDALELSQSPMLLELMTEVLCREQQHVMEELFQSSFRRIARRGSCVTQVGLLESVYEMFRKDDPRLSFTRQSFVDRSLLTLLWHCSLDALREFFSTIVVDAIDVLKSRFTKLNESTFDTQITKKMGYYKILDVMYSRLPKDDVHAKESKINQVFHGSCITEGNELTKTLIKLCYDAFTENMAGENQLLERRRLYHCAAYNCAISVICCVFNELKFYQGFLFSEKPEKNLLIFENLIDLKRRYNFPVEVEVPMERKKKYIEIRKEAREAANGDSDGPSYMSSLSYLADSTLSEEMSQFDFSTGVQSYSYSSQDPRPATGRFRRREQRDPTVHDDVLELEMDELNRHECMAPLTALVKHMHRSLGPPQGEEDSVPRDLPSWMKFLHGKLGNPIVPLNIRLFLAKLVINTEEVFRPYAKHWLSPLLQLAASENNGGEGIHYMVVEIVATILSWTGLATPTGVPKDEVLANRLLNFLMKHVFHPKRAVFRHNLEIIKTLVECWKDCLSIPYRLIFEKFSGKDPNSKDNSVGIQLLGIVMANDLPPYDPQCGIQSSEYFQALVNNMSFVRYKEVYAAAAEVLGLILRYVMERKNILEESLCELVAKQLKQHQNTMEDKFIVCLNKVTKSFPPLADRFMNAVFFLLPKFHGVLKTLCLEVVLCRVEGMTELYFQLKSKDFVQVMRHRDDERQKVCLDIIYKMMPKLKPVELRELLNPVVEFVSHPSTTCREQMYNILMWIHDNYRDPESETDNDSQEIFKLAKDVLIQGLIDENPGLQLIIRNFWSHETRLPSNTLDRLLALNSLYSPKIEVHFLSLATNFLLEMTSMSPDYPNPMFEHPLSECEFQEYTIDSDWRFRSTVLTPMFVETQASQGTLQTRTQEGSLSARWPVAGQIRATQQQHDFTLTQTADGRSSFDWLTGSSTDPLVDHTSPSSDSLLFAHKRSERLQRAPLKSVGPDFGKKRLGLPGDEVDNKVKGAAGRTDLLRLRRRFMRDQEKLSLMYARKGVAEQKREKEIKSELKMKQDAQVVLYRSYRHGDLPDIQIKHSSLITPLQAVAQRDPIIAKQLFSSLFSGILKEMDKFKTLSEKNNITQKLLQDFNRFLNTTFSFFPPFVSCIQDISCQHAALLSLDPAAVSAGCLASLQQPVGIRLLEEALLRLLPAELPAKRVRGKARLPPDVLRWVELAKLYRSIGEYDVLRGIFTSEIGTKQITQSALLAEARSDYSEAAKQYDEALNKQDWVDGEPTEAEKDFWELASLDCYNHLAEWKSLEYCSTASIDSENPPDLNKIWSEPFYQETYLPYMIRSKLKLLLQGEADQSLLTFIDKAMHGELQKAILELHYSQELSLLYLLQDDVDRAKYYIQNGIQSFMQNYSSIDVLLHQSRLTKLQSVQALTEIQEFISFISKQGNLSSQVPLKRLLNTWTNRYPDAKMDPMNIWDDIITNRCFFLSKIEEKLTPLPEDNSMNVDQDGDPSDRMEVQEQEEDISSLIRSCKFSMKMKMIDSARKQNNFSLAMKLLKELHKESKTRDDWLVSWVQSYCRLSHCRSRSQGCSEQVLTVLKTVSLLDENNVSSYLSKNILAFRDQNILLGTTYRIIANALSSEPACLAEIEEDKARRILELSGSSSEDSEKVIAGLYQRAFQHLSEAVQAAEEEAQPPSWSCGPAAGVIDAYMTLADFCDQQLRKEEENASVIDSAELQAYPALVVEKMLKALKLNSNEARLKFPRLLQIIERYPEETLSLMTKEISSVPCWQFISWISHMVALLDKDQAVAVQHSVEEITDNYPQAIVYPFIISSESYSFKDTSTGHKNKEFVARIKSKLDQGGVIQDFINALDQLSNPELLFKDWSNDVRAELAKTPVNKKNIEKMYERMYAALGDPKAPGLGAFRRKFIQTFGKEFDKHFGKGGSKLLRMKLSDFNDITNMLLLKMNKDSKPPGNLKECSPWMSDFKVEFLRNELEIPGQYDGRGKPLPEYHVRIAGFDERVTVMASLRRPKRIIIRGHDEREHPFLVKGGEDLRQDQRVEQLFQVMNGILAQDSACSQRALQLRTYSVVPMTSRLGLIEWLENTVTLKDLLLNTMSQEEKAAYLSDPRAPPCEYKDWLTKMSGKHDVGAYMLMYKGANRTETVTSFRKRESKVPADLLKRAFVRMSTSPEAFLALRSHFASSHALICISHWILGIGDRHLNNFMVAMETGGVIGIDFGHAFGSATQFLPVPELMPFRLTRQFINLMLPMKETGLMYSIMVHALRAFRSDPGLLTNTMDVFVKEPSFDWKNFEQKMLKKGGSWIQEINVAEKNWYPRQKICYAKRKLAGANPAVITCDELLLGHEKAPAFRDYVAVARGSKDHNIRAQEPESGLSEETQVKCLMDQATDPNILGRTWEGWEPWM

The IC50 is the midpoint of a concentration-inhibition curve. In the case of `CCNC(=O)Nc1ccc(-c2nc3c(c(N4CCOC[C@@H]4C)n2)CCN(C(=O)Cc2cccnc2)C3)cc1` [Example 91, (S)-1-ethyl-3-(4-(4-(3-methylmorpholino)-7-(2-(pyridin-3-yl)acetyl)-5,6,7,8-tetrahydropyrido[3,4-d]pyrimidin-2-yl)phenyl)urea], the IC50 in experiment [1] (setting [3]) is over 10000 nM; in experiment [2] it was 87 nM.

For the compound `CCOC(=O)N1Cc2nc(-c3ccc(NC(=O)NC4CC4)cc3F)nc(N3CCOC[C@@H]3C)c2C1` [Example 131, (S)-ethyl 2-(4-(3-cyclopropylureido)-2-fluorophenyl)-4-(3-methylmorpholino)-5H-pyrrolo[3,4-d]pyrimidine-6(7H)-carboxylate], the 50% inhibitory concentration (IC50) in experiment [1] (setting [3]) was over 10000 nM; in experiment [2], 49 nM.

Regarding `CC(C)C(=O)N1CCc2c(nc(-c3ccc(NC(=O)NC4CC4)cc3)nc2N2CCOC[C@@H]2C)C1` [Example 61, (S)-1-cyclopropyl-3-(4-(7-isobutyryl-4-(3-methylmorpholino)-5,6,7,8-tetrahydropyrido[3,4-d]pyrimidin-2-yl)phenyl)urea], the IC50 is over 10000 nM in experiment [1] (setting [4]), over 10000 nM in experiment [1] (setting [3]) and 20 nM in experiment [2].

As for `CCNC(=O)Nc1ccc(-c2nc3c(c(N4CCOC[C@@H]4C)n2)CN(CC(C)C)C3)cc1` [Example 66, (S)-1-ethyl-3-(4-(6-isobutyl-4-(3-methylmorpholino)-6,7-dihydro-5H-pyrrolo[3,4-d]pyrimidin-2-yl)phenyl)urea], the IC50 is over 10000 nM in experiment [1] (setting [3]) and 54 nM in experiment [2].

In the case of `CCNC(=O)Nc1ccc(-c2nc3c(c(N4CCOC[C@@H]4C)n2)CCN(C(=O)OCC)C3)cc1` [Example 77, (S)-ethyl 2-(4-(3-ethylureido)phenyl)-4-(3-methylmorpholino)-5,6-dihydropyrido[3,4-d]pyrimidine-7(8H)-carboxylate], the IC50 in experiment [1] (setting [3]) was over 10000 nM; in experiment [2], 28 nM.

Consider `CCNC(=O)Nc1ccc(-c2nc3c(c(N4CCOC[C@@H]4C)n2)CCN(C(=O)C(C)(C)C)C3)cc1` [Example 58, (S)-1-ethyl-3-(4-(4-(3-methylmorpholino)-7-pivaloyl-5,6,7,8-tetrahydropyrido[3,4-d]pyrimidin-2-yl)phenyl)urea], for which the figures for the IC50 in experiment [1] (setting [4]), in experiment [1] (setting [3]) and in experiment [2] were over 10000 nM, over 10000 nM and 17 nM, respectively.

As for `CCNC(=O)Nc1ccc(-c2nc3c(c(N4CCOC[C@@H]4C)n2)CCN(C(=O)NCC)C3)cc1` [Example 87, (S)—N-ethyl-2-(4-(3-ethylureido)phenyl)-4-(3-methylmorpholino)-5,6-dihydropyrido[3,4-d]pyrimidine-7(8H)-carboxamide], the figures for the IC50 in experiment [1] (setting [3]) and in experiment [2] were over 10000 nM and 91 nM, respectively.

`CCNC(=O)Nc1ccc(-c2nc3c(c(N4CCOC[C@@H]4C)n2)CN(C(=O)OCC)C3)cc1` [Example 90, (S)-ethyl 2-(4-(3-ethylureido)phenyl)-4-(3-methylmorpholino)-5H-pyrrolo[3,4-d]pyrimidine-6(7H)-carboxylate]: the IC50 in experiment [1] (setting [3]) was over 10000 nM; in experiment [2], 37 nM.

For the compound `CCNC(=O)Nc1ccc(-c2nc3c(c(N4CCOC[C@@H]4C)n2)CCN(C(=O)OC)C3)cc1` [Example 81, (S)-methyl 2-(4-(3-ethylureido)phenyl)-4-(3-methylmorpholino)-5,6-dihydropyrido[3,4-d]pyrimidine-7(8H)-carboxylate], the IC50 in experiment [1] (setting [3]) is over 10000 nM; in experiment [2] it was 22 nM.

Turning to `CCNC(=O)Nc1ccc(-c2nc3c(c(N4CCOC[C@@H]4C)n2)CN(C(=O)OCC)C3)cc1F` [Example 103, (S)-ethyl-2-(4-(3-ethylureido)-3-fluorophenyl)-4-(3-methylmorpholino)-5H-pyrrolo[3,4-d]pyrimidine-6(7H)-carboxylate], the IC50 was over 10000 nM in experiment [1] (setting [3]) and 88 nM in experiment [2].

Consider `CCNC(=O)Nc1ccc(-c2nc3c(c(N4CCOC[C@@H]4C)n2)CN(C(=O)OC)C3)cc1` [Example 89, (S)-methyl 2-(4-(3-ethylureido)phenyl)-4-(3-methylmorpholino)-5H-pyrrolo[3,4-d]pyrimidine-6(7H)-carboxylate], for which the results for the IC50 in experiment [1] (setting [3]) and in experiment [2] were 1000 to 10000 nM and 42 nM, respectively.

For `CCNC(=O)Nc1ccc(-c2nc3c(c(N4CCOC[C@@H]4C)n2)CN(C(=O)OCC)C3)c(F)c1` [Example 113, (S)-ethyl-2-(4-(3-ethylureido)-2-fluorophenyl)-4-(3-methylmorpholino)-5H-pyrrolo[3,4-d]pyrimidine-6(7H)-carboxylate], the IC50 in experiment [1] (setting [3]) is over 10000 nM; in experiment [2], 53 nM.

For the compound `CCNC(=O)Nc1ccc(-c2nc3c(c(N4CCOC[C@@H]4C)n2)CCN(C)C3)c(F)c1` [Example 110, (S)-1-ethyl-3-(3-fluoro-4-(7-methyl-4-(3-methylmorpholino)-5,6,7,8-tetrahydropyrido[3,4-d]pyrimidin-2-yl)phenyl)urea], the IC50 is over 10000 nM in experiment [1] (setting [3]) and 118 nM in experiment [2].

`CCOC(=O)N1CCc2c(nc(-c3ccc(NC(=O)NC4CC4)cc3)nc2N2CCOC[C@@H]2C)C1` [Example 78, (S)-ethyl 2-(4-(3-cyclopropylureido)phenyl)-4-(3-methylmorpholino)-5,6-dihydropyrido[3,4-d]pyrimidine-7(8H)-carboxylate]: the results for the IC50 in experiment [1] (setting [3]) and in experiment [2] were over 10000 nM and 21 nM, respectively.

On to `C[C@H]1COCCN1c1nc(-c2ccc(NC(=O)Nc3cccc(O)n3)cc2)nc2c1CN(C)C2` [Example 80, (S)-1-(6-hydroxypyridin-2-yl)-3-(4-(6-methyl-4-(3-methylmorpholino)-6,7-dihydro-5H-pyrrolo[3,4-d]pyrimidin-2-yl)phenyl)urea], for which the IC50 in experiment [1] (setting [3]) is over 10000 nM; in experiment [2], 61 nM.

Consider `CCNC(=O)N1CCc2c(nc(-c3ccc(NC(=O)NC4CC4)cc3)nc2N2CCOC[C@@H]2C)C1` [Example 88, (S)-2-(4-(3-cyclopropylureido)phenyl)-N-ethyl-4-(3-methylmorpholino)-5,6-dihydropyrido[3,4-d]pyrimidine-7(8H)-carboxamide], for which the IC50 in experiment [1] (setting [3]) was over 10000 nM; in experiment [2], 57 nM.

As to `CCNC(=O)Nc1ccc(-c2nc3c(c(N4CCOC[C@@H]4C)n2)CN(C)C3)cc1F` [Example 85, (S)-1-ethyl-3-(2-fluoro-4-(6-methyl-4-(3-methylmorpholino)-6,7-dihydro-5H-pyrrolo[3,4-d]pyrimidin-2-yl)phenyl)urea], the results for the IC50 in experiment [1] (setting [3]) and in experiment [2] were over 10000 nM and 531 nM, respectively.

`C[C@H]1COCCN1c1nc(-c2ccc(NC(=O)NC3CC3)cc2)nc2c1CCN(C(=O)C1CC1)C2` [Example 60, (S)-1-(4-(7-(cyclopropanecarbonyl)-4-(3-methylmorpholino)-5,6,7,8-tetrahydropyrido[3,4-d]pyrimidin-2-yl)phenyl)-3-cyclopropylurea]: the IC50 is over 10000 nM in experiment [1] (setting [4]), over 10000 nM in experiment [1] (setting [3]) and 21 nM in experiment [2].

Consider `COC(=O)N1CCc2c(nc(-c3ccc(NC(=O)NC4CC4)cc3)nc2N2CCOC[C@@H]2C)C1` [Example 83, (S)-methyl 2-(4-(3-cyclopropylureido)phenyl)-4-(3-methylmorpholino)-5,6-dihydropyrido[3,4-d]pyrimidine-7(8H)-carboxylate], for which the IC50 was over 10000 nM in experiment [1] (setting [3]) and 70 nM in experiment [2].

Regarding `COC(=O)N1Cc2nc(-c3ccc(NC(=O)NC4CC4)cc3)nc(N3CCOC[C@@H]3C)c2C1` [Example 86, (S)-methyl 2-(4-(3-cyclopropylureido)phenyl)-4-(3-methylmorpholino)-5H-pyrrolo[3,4-d]pyrimidine-6(7H)-carboxylate], the IC50 is over 10000 nM in experiment [1] (setting [3]) and 43 nM in experiment [2].

Take `C[C@H]1COCCN1c1nc(-c2ccc(NC(=O)NC3CC3)cc2)nc2c1CCN(C(=O)C(C)(C)C)C2` [Example 64, (S)-1-cyclopropyl-3-(4-(4-(3-methylmorpholino)-7-pivaloyl-5,6,7,8-tetrahydropyrido[3,4-d]pyrimidin-2-yl)phenyl)urea]: the half-inhibitory concentration (IC50) was over 10000 nM in experiment [1] (setting [3]) and 17 nM in experiment [2].
